Experimental data from ChEMBL document CHEMBL4334471, “Discovery of 1,8-disubstituted-[1,2,3]triazolo[4,5-c]quinoline derivatives as a new class of Hippo signaling pathway inhibitors” (Bioorg Med Chem Lett, 2019).

Legend:
[1] = biological target: Activated CDC42 kinase 1 (Homo sapiens) (UniProt Q07912); assay: Inhibition of human ACK1 (1 to 389 residues) assessed as residual activity at 10 uM using EFPIYDFLPAKKK as substrate incubated for 40 mins in presence of [gamma-33ATP] by scintillation counting based radiometry assay relative to control
[2] = biological target: CDK3/Cyclin E (Homo sapiens) (UniProt P24864+Q00526); assay: Inhibition of recombinant full length human CDK3/CyclinE assessed as residual activity at 10 uM using Histone H1 as substrate incubated for 40 mins in presence of [gamma-33ATP] by scintillation counting based radiometry assay relative to control; format: protein-complex assay
[3] = tested on: CDK18/Cyclin Y (Homo sapiens), Q07002+Q8ND76 [T166M]; assay: Inhibition of recombinant full length human CDK18/cyclinY T166M mutant assessed as residual activity at 10 uM using YRRAAVPPSPSLS as substrate incubated for 40 mins in presence of [gamma-33ATP] by scintillation counting based radiometry assay relative to control; format: protein-complex assay
[4] = biological target: Cyclin-dependent kinase-like 1 (Homo sapiens) (UniProt Q00532); assay: Inhibition of recombinant full length human CDKL1 assessed as residual activity at 10 uM using RRRFRPASPLRGP as substrate incubated for 120 mins in presence of [gamma-33ATP] by scintillation counting based radiometry assay relative to control
[5] = tested on: Mast/stem cell growth factor receptor Kit (Homo sapiens), P10721 [D816V]; assay: Inhibition of recombinant human C-Kit D816V mutant (544 to end residues) assessed as residual activity at 10 uM poly(Glu, Tyr) 4:1 as substrate incubated 40 mins in presence of [gamma-33ATP] by scintillation counting based radiometry assay relative to control
[6] = biological target: Tyrosine-protein kinase Fyn (Homo sapiens) (UniProt P06241); assay: Inhibition of recombinant full length human Fyn assessed as residual activity at 10 uM using KVEKIGEGTYGVV as substrate at 40 mins in presence of [gamma-33ATP] by scintillation counting based radiometry assay relative to control
[7] = biological target: Tyrosine-protein kinase HCK (Homo sapiens) (UniProt P08631); assay: Inhibition of human HCK activated (230 to 497 residues) assessed as residual activity at 10 uM using GGMEDIYFEFMGGKKK as substrate after 40 mins by [gamma-33ATP] radiometric assay relative to control
[8] = biological target: Mitogen-activated protein kinase kinase kinase kinase 1 (Homo sapiens) (UniProt Q92918); assay: Inhibition of human HPK1 (1 to 346 residues) assessed as residual activity at 10 uM using myelin basic protein as substrate after 40 mins by [gamma-33ATP] radiometric assay relative to control
[9] = biological target: Tyrosine-protein kinase JAK3 (Homo sapiens) (UniProt P52333); assay: Inhibition of human JAK3 (781 to end residues) assessed as residual activity at 10 uM using GGEEEEYFELVKKKK as substrate after 40 mins by [gamma-33ATP] radiometric assay relative to control
[10] = biological target: Dual specificity mitogen-activated protein kinase kinase 2 (Homo sapiens) (UniProt P36507); assay: Inhibition of recombinant human MEK2 assessed as residual activity at 10 uM using MBP as substrate incubated for 40 mins in presence of [gamma-33ATP by scintillation counting based radiometry assay relative to control
[11] = biological target: Hepatocyte growth factor receptor (Homo sapiens) (UniProt P08581); assay: Inhibition of recombinant human MET A1209G/V1290L mutant (974 to end residues) assessed as residual activity at 10 uM using KKKGQEEEYVFIE as substrate incubated for 40 mins in presence of [gamma-33ATP by scintillation counting based radiometry assay relative to control
[12] = biological target: MAPK/MAK/MRK overlapping kinase (Homo sapiens) (UniProt Q9UQ07); assay: Inhibition of recombinant human MOK (1 to 343 residues) assessed as residual activity at 10 uM using RSRSRSRSRSRSR as substrate incubated for 40 mins in presence of [gamma-33ATP by scintillation counting based radiometry assay relative to control
[13] = biological target: Serine/threonine-protein kinase 26 (Homo sapiens) (UniProt Q9P289); assay: Inhibition of recombinant human MST4 (4 to 304 residues) assessed as residual activity at 10 uM using RLGRDKYKTLRQI as substrate measured after 40 mins in presence of [gamma33P]ATP by scintillation counting based radiometry assay relative to control
[14] = biological target: Serine/threonine-protein kinase mTOR (Homo sapiens) (UniProt P42345); assay: Inhibition of recombinant full length human mTOR assessed as residual activity at 10 uM measured after 40 mins in presence of [gamma33P]ATP by scintillation counting based radiometry assay relative to control
[15] = biological target: Serine/threonine-protein kinase Nek11 (Homo sapiens) (UniProt Q8NG66); assay: Inhibition of recombinant full length human NEK11 assessed as residual activity at 10 uM using myelin basic protein as substrate measured after 40 mins in presence of [gamma33P]ATP by scintillation counting based radiometry assay relative to control
[16] = biological target: Serine/threonine-protein kinase PRP4 homolog (Homo sapiens) (UniProt Q13523); assay: Inhibition of recombinant human PRP4 (663 to end residues) assessed as residual activity at 10 uM using casein as substrate incubated for 40 mins in presence of [gamma33P]ATP by scintillation counting based radiometry assay relative to control
[17] = biological target: Serine/threonine-protein kinase Sgk3 (Homo sapiens) (UniProt Q96BR1); assay: Inhibition of recombinant human SGK3 (119 to end residues) assessed as residual activity at 10 uM using GRPRTSSFAEGKK as substrate incubated for 40 mins in presence of [gamma33P]ATP by scintillation counting based radiometry assay relative to control
[18] = biological target: Serine/threonine-protein kinase SIK1 (Homo sapiens) (UniProt P57059); assay: Inhibition of recombinant human SIK (1 to 281 residues) assessed as residual activity at 10 uM using AMARAASAAALARRR as substrate incubated for 40 mins in presence of [gamma33P]ATP by scintillation counting based radiometry assay relative to control
[19] = species on record: Homo sapiens; assay: Inhibition of recombinant human full length PI3K p120gamma R459Q mutant assessed as residual activity at 10 uM using phosphatidylinositol-4, 5-bisphosphate as substrate incubated for 40 mins in presence of [gamma33P]ATP by scintillation counting based radiometry assay relative to control
[20] = biological target: Phosphatidylinositol 5-phosphate 4-kinase type-2 alpha (Homo sapiens) (UniProt P48426); assay: Inhibition of recombinant full-length human PIP4K2alpha assessed as residual activity at 10 uM using phosphatidylinositol 5-phosphate as substrate by HTRF assay relative to control
[21] = biological target: LIM domain kinase 2 (Homo sapiens) (UniProt P53671); assay: Inhibition of recombinant human LIMK2 assessed as residual activity after 10 uM by scintillation counting based radiometry assay relative to control

Sequence of Tyrosine-protein kinase HCK (Homo sapiens) (P08631 2-526 limits assumed): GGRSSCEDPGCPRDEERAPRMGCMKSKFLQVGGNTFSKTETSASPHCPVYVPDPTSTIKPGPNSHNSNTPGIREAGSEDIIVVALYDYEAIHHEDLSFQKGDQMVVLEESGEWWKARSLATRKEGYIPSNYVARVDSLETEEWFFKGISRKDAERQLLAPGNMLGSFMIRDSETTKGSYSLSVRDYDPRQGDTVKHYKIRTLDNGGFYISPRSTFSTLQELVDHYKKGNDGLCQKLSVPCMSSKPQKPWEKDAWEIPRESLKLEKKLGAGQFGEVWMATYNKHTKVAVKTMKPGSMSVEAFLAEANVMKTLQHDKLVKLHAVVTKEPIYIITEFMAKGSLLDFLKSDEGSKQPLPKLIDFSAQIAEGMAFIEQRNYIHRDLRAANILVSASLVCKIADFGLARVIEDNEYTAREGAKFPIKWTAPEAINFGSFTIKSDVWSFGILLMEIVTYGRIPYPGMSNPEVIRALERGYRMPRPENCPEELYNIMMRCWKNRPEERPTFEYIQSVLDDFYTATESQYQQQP
Sequence of MAPK/MAK/MRK overlapping kinase (Homo sapiens) (Q9UQ07 whole entry, the tested form may be a part): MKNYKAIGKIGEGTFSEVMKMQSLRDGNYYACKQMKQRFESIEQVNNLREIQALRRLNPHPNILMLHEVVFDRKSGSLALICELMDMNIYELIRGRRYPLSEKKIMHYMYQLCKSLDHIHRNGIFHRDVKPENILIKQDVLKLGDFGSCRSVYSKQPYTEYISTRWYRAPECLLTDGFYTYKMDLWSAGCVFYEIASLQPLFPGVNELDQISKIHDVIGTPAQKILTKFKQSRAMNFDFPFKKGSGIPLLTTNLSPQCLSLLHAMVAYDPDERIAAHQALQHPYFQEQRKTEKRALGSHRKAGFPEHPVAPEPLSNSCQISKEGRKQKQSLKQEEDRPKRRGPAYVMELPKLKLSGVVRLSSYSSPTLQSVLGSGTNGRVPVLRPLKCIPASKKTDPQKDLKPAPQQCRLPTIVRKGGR
Sequence of Cyclin-dependent kinase-like 1 (Homo sapiens) (Q00532 whole entry): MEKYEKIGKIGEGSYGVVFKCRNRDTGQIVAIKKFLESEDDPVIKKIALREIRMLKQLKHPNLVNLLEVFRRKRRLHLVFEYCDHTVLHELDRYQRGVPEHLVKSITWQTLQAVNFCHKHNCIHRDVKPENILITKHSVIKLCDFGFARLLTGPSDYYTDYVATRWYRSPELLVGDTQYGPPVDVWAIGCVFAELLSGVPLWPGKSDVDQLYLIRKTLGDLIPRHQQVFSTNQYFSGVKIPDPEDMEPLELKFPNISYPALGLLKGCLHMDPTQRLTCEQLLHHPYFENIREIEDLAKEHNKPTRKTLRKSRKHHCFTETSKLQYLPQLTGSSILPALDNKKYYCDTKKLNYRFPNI
Sequence of Mast/stem cell growth factor receptor Kit (Homo sapiens), P10721 [D816V] (P10721 whole entry D816V): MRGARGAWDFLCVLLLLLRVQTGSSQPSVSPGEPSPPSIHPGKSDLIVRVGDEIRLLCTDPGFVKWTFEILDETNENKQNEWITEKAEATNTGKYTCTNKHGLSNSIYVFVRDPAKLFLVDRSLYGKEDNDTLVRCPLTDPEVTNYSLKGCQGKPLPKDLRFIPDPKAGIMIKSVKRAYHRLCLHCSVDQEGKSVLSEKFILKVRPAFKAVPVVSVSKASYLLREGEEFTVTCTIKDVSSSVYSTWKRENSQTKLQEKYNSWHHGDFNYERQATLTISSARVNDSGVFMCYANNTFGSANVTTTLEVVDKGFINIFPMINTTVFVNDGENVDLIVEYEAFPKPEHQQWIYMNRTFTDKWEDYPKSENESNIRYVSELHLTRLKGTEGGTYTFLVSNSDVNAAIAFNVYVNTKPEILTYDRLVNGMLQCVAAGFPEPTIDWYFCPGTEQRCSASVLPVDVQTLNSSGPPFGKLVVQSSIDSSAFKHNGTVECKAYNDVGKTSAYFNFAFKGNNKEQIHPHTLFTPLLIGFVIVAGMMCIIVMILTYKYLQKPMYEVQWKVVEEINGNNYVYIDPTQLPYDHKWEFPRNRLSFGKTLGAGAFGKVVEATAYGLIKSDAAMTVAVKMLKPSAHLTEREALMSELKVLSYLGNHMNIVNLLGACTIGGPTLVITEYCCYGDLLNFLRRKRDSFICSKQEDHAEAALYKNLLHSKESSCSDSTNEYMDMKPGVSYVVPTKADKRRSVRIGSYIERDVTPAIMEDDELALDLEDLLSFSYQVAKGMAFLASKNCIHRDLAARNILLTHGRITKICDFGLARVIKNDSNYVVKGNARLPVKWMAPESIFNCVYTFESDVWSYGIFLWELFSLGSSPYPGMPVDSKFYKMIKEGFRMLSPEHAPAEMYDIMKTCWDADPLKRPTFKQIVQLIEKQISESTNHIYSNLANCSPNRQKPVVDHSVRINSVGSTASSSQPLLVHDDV
Sequence of Serine/threonine-protein kinase Nek11 (Homo sapiens) (Q8NG66 whole entry): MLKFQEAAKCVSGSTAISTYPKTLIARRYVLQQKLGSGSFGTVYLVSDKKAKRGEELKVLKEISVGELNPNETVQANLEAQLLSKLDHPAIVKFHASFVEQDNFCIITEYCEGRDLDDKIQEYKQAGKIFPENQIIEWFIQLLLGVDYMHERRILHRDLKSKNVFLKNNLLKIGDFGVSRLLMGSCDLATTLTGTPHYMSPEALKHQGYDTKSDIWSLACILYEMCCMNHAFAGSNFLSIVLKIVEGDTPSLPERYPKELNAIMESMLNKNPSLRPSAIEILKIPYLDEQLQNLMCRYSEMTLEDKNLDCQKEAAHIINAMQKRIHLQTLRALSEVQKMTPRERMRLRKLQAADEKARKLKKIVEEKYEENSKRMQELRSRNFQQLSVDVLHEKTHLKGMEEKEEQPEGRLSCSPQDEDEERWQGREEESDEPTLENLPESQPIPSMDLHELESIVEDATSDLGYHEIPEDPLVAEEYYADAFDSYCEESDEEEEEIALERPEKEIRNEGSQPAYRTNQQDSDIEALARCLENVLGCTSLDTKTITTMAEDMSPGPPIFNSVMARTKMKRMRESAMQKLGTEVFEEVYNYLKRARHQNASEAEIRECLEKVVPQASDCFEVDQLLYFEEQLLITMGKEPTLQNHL
Sequence of Serine/threonine-protein kinase SIK1 (Homo sapiens) (P57059 whole entry, the tested form may be a part): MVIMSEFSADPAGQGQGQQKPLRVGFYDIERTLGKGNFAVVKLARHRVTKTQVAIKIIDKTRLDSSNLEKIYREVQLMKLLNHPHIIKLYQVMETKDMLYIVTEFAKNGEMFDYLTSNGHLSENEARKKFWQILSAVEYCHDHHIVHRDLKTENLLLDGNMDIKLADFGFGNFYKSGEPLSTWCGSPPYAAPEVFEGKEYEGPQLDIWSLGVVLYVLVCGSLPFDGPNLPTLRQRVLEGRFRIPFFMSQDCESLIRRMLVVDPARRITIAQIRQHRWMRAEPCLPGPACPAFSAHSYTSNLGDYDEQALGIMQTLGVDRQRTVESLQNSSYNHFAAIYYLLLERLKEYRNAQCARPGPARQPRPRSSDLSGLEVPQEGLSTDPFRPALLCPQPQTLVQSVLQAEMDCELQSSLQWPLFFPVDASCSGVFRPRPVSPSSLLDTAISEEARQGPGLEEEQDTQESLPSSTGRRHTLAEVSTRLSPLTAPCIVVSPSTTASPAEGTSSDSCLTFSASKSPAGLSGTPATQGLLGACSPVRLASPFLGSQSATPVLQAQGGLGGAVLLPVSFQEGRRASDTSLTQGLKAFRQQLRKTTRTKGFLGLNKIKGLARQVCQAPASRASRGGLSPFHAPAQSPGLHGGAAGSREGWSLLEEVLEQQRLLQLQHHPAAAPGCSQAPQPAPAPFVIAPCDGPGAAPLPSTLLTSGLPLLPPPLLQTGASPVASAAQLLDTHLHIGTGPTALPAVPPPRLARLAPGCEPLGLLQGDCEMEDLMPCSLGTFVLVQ
Sequence of CDK3/Cyclin E (Homo sapiens) (P24864 whole entry, looked up): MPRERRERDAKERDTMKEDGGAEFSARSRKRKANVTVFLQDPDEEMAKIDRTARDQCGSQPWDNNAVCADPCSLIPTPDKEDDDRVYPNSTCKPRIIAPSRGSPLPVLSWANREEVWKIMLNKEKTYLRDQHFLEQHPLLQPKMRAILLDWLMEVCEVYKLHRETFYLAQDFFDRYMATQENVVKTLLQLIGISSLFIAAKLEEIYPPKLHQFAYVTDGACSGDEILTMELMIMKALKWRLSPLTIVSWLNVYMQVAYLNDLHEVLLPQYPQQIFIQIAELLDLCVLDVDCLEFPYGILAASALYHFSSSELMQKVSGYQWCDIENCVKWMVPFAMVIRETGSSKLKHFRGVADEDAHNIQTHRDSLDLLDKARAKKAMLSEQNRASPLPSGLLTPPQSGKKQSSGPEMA
Sequence of CDK3/Cyclin E (Homo sapiens) (Q00526 whole entry, looked up): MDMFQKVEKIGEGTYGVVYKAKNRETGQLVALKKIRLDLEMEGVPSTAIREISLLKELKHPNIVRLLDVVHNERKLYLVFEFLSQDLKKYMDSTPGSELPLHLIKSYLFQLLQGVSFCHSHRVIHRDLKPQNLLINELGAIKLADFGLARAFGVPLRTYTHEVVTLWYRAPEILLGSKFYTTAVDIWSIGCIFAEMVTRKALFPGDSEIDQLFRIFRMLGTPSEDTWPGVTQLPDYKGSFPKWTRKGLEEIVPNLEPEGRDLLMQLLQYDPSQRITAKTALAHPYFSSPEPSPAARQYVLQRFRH
Sequence of Phosphatidylinositol 5-phosphate 4-kinase type-2 alpha (Homo sapiens) (P48426 whole entry, the tested form may be a part): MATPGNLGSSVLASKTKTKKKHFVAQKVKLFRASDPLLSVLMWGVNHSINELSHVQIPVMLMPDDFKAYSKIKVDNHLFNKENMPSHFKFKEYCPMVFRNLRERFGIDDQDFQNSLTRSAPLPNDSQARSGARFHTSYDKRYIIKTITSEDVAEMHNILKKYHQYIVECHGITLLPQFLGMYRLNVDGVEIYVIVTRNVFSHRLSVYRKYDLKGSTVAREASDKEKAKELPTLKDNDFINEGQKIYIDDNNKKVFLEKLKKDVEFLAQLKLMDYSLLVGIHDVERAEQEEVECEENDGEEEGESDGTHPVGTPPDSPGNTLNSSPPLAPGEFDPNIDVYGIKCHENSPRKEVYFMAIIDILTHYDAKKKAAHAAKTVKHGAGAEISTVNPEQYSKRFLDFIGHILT

C[C@@H](c1ccccc1)n1nnc2cnc3ccc(-c4cnc5[nH]ccc5c4)cc3c21 was tested. Which Activity [1] did it give?
Its Activity is 22%.

What about the Activity [2] of the same compound?
The Activity was 71%.

What about the Activity [3] of the same compound?
The Activity was 94%.

What about the Activity [4] of the same compound?
The Activity was 79%.

What about the Activity [5] of the same compound?
Its Activity is 86%.

What about the Activity [6] of the same compound?
Its Activity is 8%.

What about the Activity [7] of the same compound?
The Activity was 21%.

And the Activity [8]?
The Activity was 84%.

And the Activity [9]?
The Activity was 43%.

And the Activity [10]?
The Activity was 92%.

What about the Activity [11] of the same compound?
The Activity was 62%.

What about the Activity [12] of the same compound?
Its Activity is 99%.

And the Activity [13]?
Its Activity is 69%.

And the Activity [14]?
The Activity was -7%.

What about the Activity [15] of the same compound?
Its Activity is 103%.

And the Activity [16]?
The Activity was 86%.

What about the Activity [17] of the same compound?
Its Activity is 80%.

And the Activity [18]?
Its Activity is 8%.

And the Activity [19]?
Its Activity is 16%.

What about the Activity [20] of the same compound?
The Activity was 95%.

What about the Activity [21] of the same compound?
The Activity was 56%.
